The results in this text go back to US9273006B2, “Anabolic compounds for treating and preventing bone loss diseases” (SYDDANSK UNIVERSITET, priority 2012, dated 2016).

Where two headings read alike, the source gives them in different places.

This test concerns hMSC-TERT. The settings on record: 6 days after induction, hMSC-TERT.
[1] abbreviates: 1 μM inhibitor in osteogenic inducing media.
[2] abbreviates: 10 μM inhibitor in osteogenic inducing media.

Consider `CCCCCCCCCCCCCCCC(=O)OC(CC(=O)O)C[N+](C)(C)C.[Cl-]` (racemic) [Palmitoyl-DL-carnitine Cl], for which the “Relative ALP activity” value stood at 0.9966 under setting [1] and 0.9612 under setting [2].
With `Nc1ncc2[nH]cnc2n1` [2-Aminopurine], the “Relative ALP activity” value is, setting by setting: under setting [1], 1.017; under setting [2], 0.6855.
On to `Nc1ncnc2c1c(I)cn2[C@@H]1O[C@H](CO)[C@@H](O)[C@H]1O` [5-Iodotubercidin], for which the “Relative ALP activity” value under setting [1] is given as 1.035 and the “Relative ALP activity” value under setting [2] was “Toxic”.
Turning to `N#CC(C#N)=Cc1ccc([N+](=O)[O-])c(O)c1` [AG-126], the “Relative ALP activity” value under setting [1] is listed as 0.9053 and the “Relative ALP activity” value under setting [2] was 1.156.
On the same counts, the results for `N#CC(=Cc1ccc2[nH]ccc2c1)C(N)=C(C#N)C#N` [AG-370] are 1.057 and 0.7902.
`N#C/C(=C/c1ccc(O)c(O)c1)C(=O)NCc1ccccc1` [AG-490]: the “Relative ALP activity” value by setting is: under setting [1], 0.9657; under setting [2], 0.3482.
In the case of `N#C/C(=C\c1ccc(O)c(O)c1)C(=O)Nc1ccccc1` [AG-494], the “Relative ALP activity” value came out at 0.8788 under setting [1] and 0.33 under setting [2].
For the molecule `COc1cc(/C=C(\C#N)C(N)=O)cc(CSc2nc3ccccc3s2)c1O` [AG-825], the “Relative ALP activity” value was found to be 0.8754 under setting [1] and 1.056 under setting [2].
Take `CC(C)(C)c1cc(/C=C(\C#N)C(N)=S)cc(C(C)(C)C)c1O` [AG-879]: the “Relative ALP activity” value under setting [1] was 0.6801 and the “Relative ALP activity” value under setting [2] came to 0.7467.
Regarding `COc1cc2ncc(-c3ccccc3)nc2cc1OC` [AG-1296], the “Relative ALP activity” value is on record as 0.7685 under setting [1] and 0.5376 under setting [2].
The corresponding values for `O=c1cc(-c2ccc(O)cc2)oc2cc(O)cc(O)c12` [Apigenin] are 0.9029 and 0.4027.
The corresponding values for `Cc1ccc(S(=O)(=O)/C=C/C#N)cc1` [BAY 11-7082] are 0.9356 and “Toxic”.
Consider `O=C(O)c1ccc2nc(-c3ccccc3)c(-c3ccccc3)nc2c1` [BML-257], for which the “Relative ALP activity” value stood at 0.8443 under setting [1] and 0.7884 under setting [2].
On the same counts, the results for `CC(C)c1cnc(NC(=O)Cc2ccccc2)s1` [BML-259] are 1.001 and 0.7259.
On the same counts, the results for `OC[C@H]1O[C@@H](n2cnc3cc(Cl)c(Cl)cc32)[C@H](O)[C@@H]1O` [DRB] are 0.9718 and 0.5043.
On the same counts, the results for `O=c1c(-c2ccc(O)cc2)coc2cc(O)ccc12` [Daidzein] are 1.14 and 1.025.
Regarding `COc1c(C=O)c(O)cc2c1C(=O)c1ccccc1C2=O` [Damnacanthal], the “Relative ALP activity” value by setting is: under setting [1], 0.8711; under setting [2], 0.3273.
On the same counts, the results for `COC(=O)/C=C/c1cc(O)ccc1O` [Erbstatin analog] are 0.8892 and 0.7022.
For `CN(C)CCCn1cc(C2=C(c3c[nH]c4ccccc34)C(=O)NC2=O)c2ccccc21` [GF 109203X], the “Relative ALP activity” value is recorded as 0.3532 under setting [1] and “Toxic” under setting [2].
As to `O=C1Nc2ccc(I)cc2/C1=C/c1cc(Br)c(O)c(Br)c1` [GW 5074], the “Relative ALP activity” value under setting [1] turned out to be 0.7969 and the “Relative ALP activity” value under setting [2] is 0.5773.
Turning to `O=c1c(-c2ccc(O)cc2)coc2cc(O)cc(O)c12` [Genistein], the “Relative ALP activity” value under setting [1] was determined as 1.215 and the “Relative ALP activity” value under setting [2] is 0.7692.
The corresponding values for `CC1CNCCN1S(=O)(=O)c1cccc2cnccc12` (stereo not drawn) [H-7] are 1.087 and 0.9015.
Turning to `NCCNS(=O)(=O)c1cccc2cnccc12` [H-9], the “Relative ALP activity” value is listed as 0.9547 under setting [1] and 0.9783 under setting [2].
In the case of `O=S(=O)(NCCNC/C=C/c1ccc(Br)cc1)c1cccc2cnccc12` [H-89], the “Relative ALP activity” value under setting [1] turned out to be 0.8924 and the “Relative ALP activity” value under setting [2] was determined as 0.3847.
Regarding `NC(N)=NCCNS(=O)(=O)c1cccc2cnccc12` [HA-1004], the “Relative ALP activity” value was found to be 0.9706 under setting [1] and 0.9424 under setting [2].
For the molecule `O=S(=O)(c1cccc2cnccc12)N1CCCNCC1` [HA-1077], the “Relative ALP activity” value is 1.02 under setting [1] and 0.908 under setting [2].
Regarding `COCc1cc(O)c(O)c(O)c1-c1c(COC)cc(O)c(O)c1O` [HBDDE], the “Relative ALP activity” value runs as follows: under setting [1], 0.8861; under setting [2], 0.7296.
For the molecule `O=C(O)c1cc(NCc2cc(O)ccc2O)ccc1O` [HDBA], the “Relative ALP activity” value amounted to 0.8708 under setting [1] and 0.9836 under setting [2].
On the same counts, the results for `O=P(O)(O)C(O)c1ccc2ccccc2c1` (stereo not drawn) [HNMPA] are 0.864 and 0.8557.
In the case of `Cc1cc(O)c2c(=O)c3c(O)cc(O)c4c5c(O)cc(O)c6c(=O)c7c(O)cc(C)c8c1c2c(c34)c(c78)c65` [Hypericin], the “Relative ALP activity” value under setting [1] was 0.8534.
In the case of `O=C1Nc2ccccc2/C1=C1/Nc2ccccc2C1=O` [Indirubin], the “Relative ALP activity” value runs as follows: under setting [1], 0.3571; under setting [2], 0.18.
The corresponding values for `CN([C@@H](Cc1ccc(OS(=O)(=O)c2cccc3cnccc23)cc1)C(=O)N1CCN(c2ccccc2)CC1)S(=O)(=O)c1cccc2cnccc12` [KN-62] are 0.956 and 0.9222.
Consider `COc1ccc(S(=O)(=O)N(CCO)c2ccccc2CN(C)C/C=C/c2ccc(Cl)cc2)cc1` [KN-93], for which the “Relative ALP activity” value by setting is: under setting [1], 0.7347; under setting [2], 0.6802.
On the same counts, the results for `O=C1Cc2c([nH]c3ccc(Br)cc23)-c2ccccc2N1` [Kenpaullone] are 0.5044 and 0.2055.
On the same counts, the results for `C/C(O)=C(\C#N)C(=O)Nc1cc(Br)ccc1Br` [LFM-A13] are 0.7381 and 0.9154.
On the same counts, the results for `O=c1cc(N2CCOCC2)oc2c(-c3ccccc3)cccc12` [LY 294002] are 0.8628 and 0.439.
Consider `O=C(O)c1cc(N(Cc2ccccc2O)Cc2cc(O)ccc2O)ccc1O` [Lavendustin A], for which the “Relative ALP activity” value worked out at 0.8641 under setting [1] and 0.4935 under setting [2].
Turning to `O=S(=O)(c1cccc2c(I)cccc12)N1CCCNCC1` [ML-7], the “Relative ALP activity” value under setting [1] worked out at 1.031 and the “Relative ALP activity” value under setting [2] came out at 0.9564.
On the same counts, the results for `O=S(=O)(c1cccc2c(Cl)cccc12)N1CCCNCC1` [ML-9] are 0.9822 and 0.6879.
As for `CC(C)n1cnc2c(NCc3ccccc3)nc(NCCO)nc21` [N9-Isopropyl-olomoucine], the “Relative ALP activity” value is, setting by setting: under setting [1], 1.128; under setting [2], 0.6666.
For the molecule `Cn1cnc2c(NCc3ccccc3)nc(NCCO)nc21` [Olomoucine], the “Relative ALP activity” value was 1.142 under setting [1] and 0.5408 under setting [2].
Turning to `COc1cccc(-c2cc(=O)c3ccccc3o2)c1N` [PD-98059], the “Relative ALP activity” value by setting is: under setting [1], 0.5617; under setting [2], 0.6017.
Regarding `Cc1ccc(-c2nn(C(C)(C)C)c3ncnc(N)c23)cc1` [PP1], the “Relative ALP activity” value by setting is: under setting [1], 0.9626; under setting [2], 0.5665.
The corresponding values for `CC(C)(C)n1nc(-c2ccc(Cl)cc2)c2c(N)ncnc21` [PP2] are 0.8276 and 0.4269.
On the same counts, the results for `Oc1cc(O)cc(/C=C/c2ccc(O)c(O)c2)c1` [Piceatannol] are 0.783 and 0.4885.
As for `O.O.O=c1c(O)c(-c2ccc(O)c(O)c2)oc2cc(O)cc(O)c12` [Quercetin dihydrate], the “Relative ALP activity” value by setting is: under setting [1], 1.001; under setting [2], 0.8354.
On the same counts, the results for `N#C/C(=C\c1cc(Cl)cc(Cl)c1)c1cccnc1` [RG-14620] are 0.8302 and 1.024.
Take `CO[C@H]1C[C@@H]2CC[C@@H](C)[C@@](O)(O2)C(=O)C(=O)N2CCCC[C@H]2C(=O)O[C@H]([C@H](C)C[C@@H]2CC[C@@H](O)[C@H](OC)C2)CC(=O)[C@H](C)/C=C(\C)[C@@H](O)[C@@H](OC)C(=O)[C@H](C)C[C@H](C)/C=C/C=C/C=C/1C` [Rapamycin]: the “Relative ALP activity” value under setting [1] stood at 0.509 and the “Relative ALP activity” value under setting [2] turned out to be 0.6057.
The corresponding values for `Cn1cc(C2=C(c3cn(CCCSC(=N)N)c4ccccc34)C(=O)NC2=O)c2ccccc21` [Ro 31-8220] are 0.3607 and “Toxic”.
For the molecule `CC[C@H](CO)Nc1nc(NCc2ccccc2)c2ncn(C(C)C)c2n1` [Roscovitine], the “Relative ALP activity” value was determined as 0.9865 under setting [1] and 0.3918 under setting [2].
The corresponding values for `CC(=O)c1c(O)c(C)c(O)c(Cc2c(O)c3c(c(C(=O)/C=C/c4ccccc4)c2O)OC(C)(C)C=C3)c1O` [Rottlerin] are 0.3874 and “Toxic”.
On the same counts, the results for `Oc1ccc(-c2nc(-c3ccc(F)cc3)c(-c3ccncc3)[nH]2)cc1` [SB-202190] are 0.7708 and 0.2703.
The corresponding values for `C[S+]([O-])c1ccc(-c2nc(-c3ccc(F)cc3)c(-c3ccncc3)[nH]2)cc1` (stereo not drawn) [SB-203580] are 0.824 and 0.458.
As for `Oc1c2ccccc2c2c3c(cccc13)N=N2` [SP 600125], the “Relative ALP activity” value is, setting by setting: under setting [1], 0.5978; under setting [2], 0.2913.
The corresponding values for `CC(C)c1cc(/C=C(\C#N)C(=O)NCCCc2ccccc2)cc(C(C)C)c1O` [SU1498] are 0.8711 and 0.7853.
Take `CN(C)c1ccc(/C=C2\C(=O)Nc3ccccc32)cc1` [SU 4312]: the “Relative ALP activity” value under setting [1] worked out at 0.7481 and the “Relative ALP activity” value under setting [2] came out at 0.5349.
